Results from the Deep4Chem optical property database.
Blank lines part the entries; values can stand above or below the compound they belong to.

Assay: solvent given as SMILES

- emission maximum (in CC1CCCCC1): 468 nm
- emission maximum (in CC#N): 476 nm
SMILES: C(=C\c1c2ccccc2cc2ccccc12)/c1ccccc1

- emission maximum (in C1CCCCC1): 480 nm
- emission maximum (in C1CCOC1): 540 nm
- emission maximum (in CC#N): 579 nm
- emission maximum (in CS(C)=O): 589 nm
- emission maximum (in ClCCl): 558 nm
SMILES: C(=C\c1ncnc2ccccc12)/c1ccc(N2CCCCC2)cc1

- emission maximum (in C1CCCCC1): 420 nm
- emission maximum (in CO): 430 nm
SMILES: Clc1ccc(/C=C(\c2ccccc2)c2nc3ccccc3s2)cc1

- emission maximum (in CC#N): 489 nm
- emission maximum (in CCCCCC): 393 nm
- emission maximum (in CCO): 505 nm
- emission maximum (in CO): 524 nm
- emission maximum (in ClCCl): 476 nm
SMILES: c1ccc(-c2cc(-c3ccc(N(c4ccccc4)c4ccccc4)cc3)cc(-c3ccccc3)n2)cc1

- emission maximum (in C1CCCCC1): 569 nm
- emission maximum (in c1ccccc1): 622 nm
SMILES: Nc1ccc2c(c1)C(=O)c1ccccc1-2

- emission maximum (in ClC(Cl)Cl): 620 nm
SMILES: CCCCN1c2ccc(/C=C/c3cc(=O)oc4cc(C)ccc34)cc2Sc2cc(/C=C/c3cc(=O)oc4cc(C)ccc34)ccc21

- emission maximum (in C1CCCCC1): 328 nm
SMILES: C[Si](C)(C)c1cccc2ccccc12

- emission maximum (in ClC(Cl)Cl): 311 nm
SMILES: c1ccc(-c2ccnc(-c3ccccc3)n2)cc1

- emission maximum (in C1COCCO1): 479 nm
- emission maximum (in CC#N): 482 nm
- emission maximum (in CCCCOCCCC): 477 nm
- emission maximum (in CCOC(C)=O): 477 nm
SMILES: COc1nc(Cl)nc(Nc2ccc3c4cccc5cccc(c6cccc2c63)c54)n1

- emission maximum (in ClCCl): 430 nm
SMILES: CCCCn1c2ccc3ccc4ccccc4c3c2c2c3c(ccc4ccccc43)ccc21

- emission maximum (in CC#N): 413 nm
SMILES: CCOC(=O)c1c2c3c(cccc3c3cc4ccccc4cc13)N(C)C2=O

- emission maximum (in C1CCOC1): 492 nm
SMILES: COc1cc2c(c(OC)c1OC)c1ccc3cccc4c5cccc6oc(=O)c2c(c65)c1c34

- emission maximum (in C1CCCCC1): 500 nm
- emission maximum (in CO): 520 nm
SMILES: CN(C)c1ccc(/C=C(\C#N)c2nc3ccccc3s2)cc1

- emission maximum (in ClCCl): 441 nm
SMILES: CC(C)(C)NC(=O)c1ccc(-c2cc3ccccc3s2)c2ccc3c4ccccc4c4ccccc4c3c12

- emission maximum (in C1CCCCC1): 399.14 nm
- emission maximum (in CC#N): 404.15 nm
- emission maximum (in ClCCl): 405.52 nm
SMILES: c1ccc2c(-c3ccc4sc5ccccc5c4c3)c3ccccc3cc2c1

Continued, compound first:

SMILES: c1ccc(-c2nc(-c3ccccc3)nc(-n3c4ccccc4c4cccc(-n5c6ccccc6c6ccccc65)c43)n2)cc1
- emission maximum (in C1CCOC1): 477.86 nm
- emission maximum (in Cc1ccccc1): 459.26 nm

SMILES: CCCCCCOc1cc(/C=C/c2cc(OCCCCCC)c(/C=C/c3cc(OCCCCCC)c(/C=C4\C(=O)c5ccccc5C4=C(C#N)C#N)cc3OCCCCCC)cc2OCCCCCC)c(OCCCCCC)cc1/C=C1\C(=O)c2ccccc2C1=C(C#N)C#N
- emission maximum (in ClCCl): 765 nm

SMILES: CC(C)(C)Nc1cc2sc3cc(NC(C)(C)C)c(F)cc3c(=O)c2cc1F
- emission maximum (in CCO): 432 nm

SMILES: O=Cc1ccc(-c2ccc(C3=CCCCC3)s2)s1
- emission maximum (in C1CCOC1): 467 nm
- emission maximum (in CC#N): 485 nm
- emission maximum (in CCCCCC): 444 nm
- emission maximum (in CCO): 498 nm
- emission maximum (in OCCOCCO): 508 nm
- emission maximum (in c1ccncc1): 483 nm

SMILES: CC(=O)c1ccc2ccc3cccc4ccc1c2c34
- emission maximum (in C1CCOC1): 387 nm
- emission maximum (in CC#N): 390 nm
- emission maximum (in CCCCCC): 387 nm
- emission maximum (in CCO): 436 nm
- emission maximum (in CN(C)C=O): 392 nm
- emission maximum (in CO): 443 nm
- emission maximum (in Cc1ccccc1): 392 nm
- emission maximum (in ClCCl): 396 nm

SMILES: CC1=N/C(=C\c2ccc(N(C)C)cc2)C(=O)N1C
- emission maximum (in C1CCCCC1): 437 nm
- emission maximum (in C1CCOC1): 452 nm
- emission maximum (in CC#N): 483 nm
- emission maximum (in CO): 492 nm
- emission maximum (in CS(C)=O): 490 nm
- emission maximum (in ClCCl): 482 nm
- emission maximum (in O): 520 nm

SMILES: CCCCCCCCCCOc1cc(OCCCCCCCCCC)cc(C2=C3C(C)=CC(/C=C/c4ccc(OC)cc4)=[N+]3[B-](F)(F)n3c(/C=C/c4ccc(OC)cc4)cc(C=Cc4ccc(OC)cc4)c32)c1
- emission maximum (in ClC(Cl)Cl): 682 nm

SMILES: Cc1cc(O)c(-c2[nH]c(=O)n3c2-c2ccccc2C3=O)cc1Cl
- emission maximum (in CC#N): 479 nm
- emission maximum (in CO): 496 nm
- emission maximum (in ClCCl): 478 nm

SMILES: O=S(=O)(c1ccc(N2c3ccccc3Oc3ccccc32)cc1)c1ccc(N2c3ccccc3Oc3ccccc32)cc1
- emission maximum (in C1COCCO1): 524 nm
- emission maximum (in CC(C)=O): 577 nm
- emission maximum (in Cc1ccccc1): 507 nm
- emission maximum (in ClC(Cl)Cl): 539 nm
- emission maximum (in c1cc(-n2c3ccccc3c3ccccc32)cc(-n2c3ccccc3c3ccccc32)c1): 505 nm

SMILES: CNC1=C2C=CC=[N+]2[B-](F)(F)n2cccc21
- emission maximum (in C1CCCCC1): 463 nm
- emission maximum (in CC(C)=O): 441.5 nm
- emission maximum (in CCO): 439 nm
- emission maximum (in CCOC(C)=O): 444.5 nm
- emission maximum (in CO): 440 nm
- emission maximum (in OCC(F)(F)F): 449 nm

SMILES: COc1cc(OC)cc(C2=[O+][B-](F)(F)OC(c3ccccc3)=C2)c1
- emission maximum (in CC#N): 602.29 nm
- emission maximum (in CC(C)=O): 590.78 nm
- emission maximum (in CCCCCC): 446.17 nm
- emission maximum (in Cc1ccccc1): 505.51 nm
- emission maximum (in ClCCl): 554 nm

SMILES: Cc1cc(O)c(C(=O)/C=C/c2ccc(Cl)cc2Cl)c(=O)o1
- emission maximum (in CC#N): 473 nm
- emission maximum (in ClCCl): 472 nm

SMILES: CCOC(=O)CCCn1c(C(=O)OC)c(C)c2c(=O)n3c(cc21)C(CC)=C(C)C3=O
- emission maximum (in C1CCCCC1): 434 nm
- emission maximum (in CO): 499 nm
- emission maximum (in CS(C)=O): 481 nm
- emission maximum (in ClC(Cl)Cl): 456 nm
- emission maximum (in c1ccccc1): 446 nm

SMILES: c1cc(-n2c3ccccc3c3ccccc32)c(-c2nc3ccccn3n2)c(-n2c3ccccc3c3ccccc32)c1
- emission maximum (in Cc1ccccc1): 397 nm

SMILES: CCOC(=O)c1c(-c2cc3ccc(OCC=C(C)C)cc3oc2=O)nn(-c2cccc(Cl)c2)c1C(=O)OCC
- emission maximum (in ClCCl): 426 nm

SMILES: O=C1c2ccccc2-c2ccc(N3CCOCC3)c3cccc1c23
- emission maximum (in C1CCOC1): 600 nm
- emission maximum (in CCCCCC): 529 nm
- emission maximum (in CCO): 640 nm
- emission maximum (in CCOC(C)=O): 600 nm
- emission maximum (in CN(C)C=O): 622 nm
- emission maximum (in CO): 661 nm
- emission maximum (in Cc1ccccc1): 568 nm
- emission maximum (in ClC(Cl)(Cl)Cl): 552 nm
- emission maximum (in ClC(Cl)Cl): 625 nm
- emission maximum (in ClCCl): 625 nm
- emission maximum (in c1ccccc1): 562 nm

SMILES: Cc1ccc(Nc2ccc(Nc3ccc(C)cc3)c3c2C(=O)c2ccccc2C3=O)cc1
- emission maximum (in C1CCCCC1): 680 nm
- emission maximum (in C1COCCO1): 684 nm
- emission maximum (in CC(C)=O): 684 nm
- emission maximum (in CCCCCCCCCCO): 682 nm
- emission maximum (in CCCCCCCO): 684 nm
- emission maximum (in CCCCCCO): 682 nm
- emission maximum (in CCCCO): 683 nm
- emission maximum (in CCO): 684 nm
- emission maximum (in CN(C)C=O): 686 nm
- emission maximum (in CO): 682 nm
- emission maximum (in CS(C)=O): 689 nm
- emission maximum (in ClC(Cl)(Cl)Cl): 685 nm
- emission maximum (in c1ccccc1): 684 nm

SMILES: CCOC(=O)CC[N+]1=c2cc3c(cc2CCC1)=Cc1c(c2ccc(N(C)C)cc2oc1=O)O3
- emission maximum (in CC#N): 643 nm
- emission maximum (in CO): 641 nm
- emission maximum (in ClCCl): 637 nm
- emission maximum (in O): 644 nm

SMILES: Cc1cc(C)cc(NC(=O)c2sc(Br)nc2C)c1
- emission maximum (in C1CCOC1): 413.2 nm
- emission maximum (in CC#N): 399 nm
- emission maximum (in CCCCCC): 400.6 nm
- emission maximum (in CCOC(C)=O): 405.5 nm
- emission maximum (in CN(C)C=O): 398.2 nm
- emission maximum (in CO): 402 nm
- emission maximum (in CS(C)=O): 402.5 nm
- emission maximum (in ClC(Cl)Cl): 411.5 nm

SMILES: COC(=O)CNC(=O)c1nc2c(N(C)C)nc(N(C)C)nc2n1Cc1ccccc1
- emission maximum (in C1COCCO1): 397 nm
- emission maximum (in CC#N): 409 nm
- emission maximum (in CO): 429 nm
- emission maximum (in ClCCl): 407 nm

SMILES: COc1cn2cc(-c3ccc(C#N)cc3)[n-][n+]2c1
- emission maximum (in ClCCl): 505 nm
